27 molecules from patent US11453690B2, “Receptor inhibitor, pharmaceutical composition comprising same, and use thereof” (BEIJING TIDE PHARMACEUTICAL CO., LTD., priority 2018, dated 2022) can be followed below.

The IC50 is the point on the concentration scale where inhibition reaches its midpoint. Read a high IC50 as a need for much substance.

Chain of AT2 Receptor (AT2R) (P50052 whole entry): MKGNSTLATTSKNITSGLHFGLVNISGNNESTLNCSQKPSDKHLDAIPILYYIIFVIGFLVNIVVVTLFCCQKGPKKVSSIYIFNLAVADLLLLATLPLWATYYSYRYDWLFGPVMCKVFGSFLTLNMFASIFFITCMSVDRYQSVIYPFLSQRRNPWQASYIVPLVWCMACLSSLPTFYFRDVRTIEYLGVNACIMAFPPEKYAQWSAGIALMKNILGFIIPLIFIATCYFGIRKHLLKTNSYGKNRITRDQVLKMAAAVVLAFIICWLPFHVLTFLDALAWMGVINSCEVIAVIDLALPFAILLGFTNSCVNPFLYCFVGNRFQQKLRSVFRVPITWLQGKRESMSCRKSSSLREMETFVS

The target of the experiment is AT2 Receptor (AT2R) (Homo sapiens (Human), UniProt P50052). As to the kind of experiment: Measurement of inhibitory activity on AT2 receptor (Tag-lite HTRF, Tb-labeled AT2R cells, angiotensin receptor red agonist). The format is binding. To be noted: 1 h room temperature. As for the experimental part:
Measurement of Inhibitory Activity on AT1 Receptor ([…])/AT2 Receptor (AT2R)
Through the following steps, the inhibitory activity of the compound on AT1R/AT2R (IC50 value) was determined:
1) An appropriate amount of 1×TLB (Tag-lite Buffer) was prepared and well mixed for use.
2) The compound was diluted by 10 times with ddH2O or DMSO. The compound was then dilute to 4 times of the working concentration with 1×TLB and mixed well for use.
3) 8600 nM Tag-lite angiotensin receptor red agonist was diluted to 12 nM (4×Kd) with 1×TLB.
4) 5 ml 1×TLB was taken into a 15 ml centrifuge tube.
5) After thawing 1 tube of Tb-labeled AT1R/AT2R cells in a 37° C. water bath, the cells were quickly transferred to the 1×TLB in step 4), mixed gently, and centrifuged at 1200 g for 5 minutes at room temperature.
6) The supernatant was aspirated gently, and the cells were resuspended and mixed in 2.7 ml 1×TLB, and then placed at room temperature until use.
7) 10 μl cells were added to all test wells, and 5 μl 4× working solution of the compound from step 2) was added to the corresponding test wells. 5 μl 4× Tag-lite angiotensin receptor red agonist well diluted in step 3) was added to all test wells.
8) After leaving the reaction plate at room temperature for 1 h, data were measured and analyzed using Envision HTRF Reader, and the half inhibitory concentration (IC50) of the compound on AT1R/AT2R was calculated with the GraphPad Prism four-parameter equation.
For orientation: Time-resolved FRET reads energy transfer from a long-lived donor to a nearby acceptor.
As for `CCN(Cc1csc(C)c1)C(=O)N1[C@H]2CC[C@@H]1[C@@H](C(=O)O)N(C(=O)N(c1ccccc1)c1ccccc1)C2` [Compound C208, (1R,2S,5S)-3-(diphenylcarbamoyl)-8-(ethyl((5-methylthiophen-3-yl)methyl)carbamoyl)-3,8-diazabicyclo [3.2.1]octane-2-carboxylic acid], the IC50 was found to be 11.8 nM.

On to `CN(C)[C@@H](Cc1ccccc1)C(=O)N1[C@H]2CC[C@@H]1[C@@H](C(=O)O)N(C(=O)N(c1ccccc1)c1ccccc1)C2` [Compound C269, (1R,2S,5S)-8-((S)-2-(dimethylamino)-3-phenylpropionyl)-3-(diphenylcarbamoyl)-3,8-diazabicyclo [3.2.1]octane-2-carboxylic acid], for which the IC50 turned out to be 68.2 nM. For the molecule `O=C(O)[C@@H]1[C@H]2CC[C@@H](CN1C(=O)N(c1ccccc1)c1ccccc1)N2C(=O)N1CCCCC1c1ccccc1` (stereo partly drawn) [Compound C146, (1R,2S,5S)-3-(diphenylcarbamoyl)-8-(2-phenylpiperidine-1-carbonyl)-3,8-diazabicyclo [3.2.1]octane-2-carboxylic acid], the IC50 stood at 14 nM.

On to `O=C(O)[C@@H]1[C@H]2CC[C@@H](CN1C(=O)N(c1ccccc1)c1ccccc1)N2C(=O)N1CCCC1c1ccccc1` (stereo partly drawn) [Compound C138, (1R,2S,5S)-3-(diphenylcarbamoyl)-8-(2-phenylpyrrolidine-1-carbonyl)-3,8-diazabicyclo[3.2.1] octane-2-carboxylic acid], for which the half-maximal inhibitory concentration (IC50) is 11.7 nM. Turning to `C=CCc1ccc(CN(C)C(=O)N2[C@H]3CC[C@@H]2[C@@H](C(=O)O)N(C(=O)N(c2ccccc2)c2ccccc2)C3)cc1` [Compound C235, (1R,2S,5S)-8-((4-allylbenzyl)(methyl)carbamoyl)-3-(diphenylcarbamoyl)-3,8-diazabicyclo[3.2.1]octane-2-carboxylic acid], the IC50 was 6.78 nM. In the case of `CCN(Cc1csc(Cl)c1)C(=O)N1[C@H]2CC[C@@H]1[C@@H](C(=O)O)N(C(=O)N(c1ccccc1)c1ccccc1)C2` [Compound C274, (1R,2S,5S)-8-(((5-chlorothiophene-3-yl)methyl) (ethyl)carbamoyl)-3-(diphenylcarbamoyl)-3,8-diazabicyclo [3.2.1]octane-2-carboxylic acid] it was 19.8 nM. Then `O=C(O)[C@@H]1[C@H]2CC[C@@H](CN1C(=O)N(c1ccccc1)c1ccccc1)N2C(=O)N(Cc1ccccc1)C1CC1` [Compound C153, (1R,2S,5S)-8-(benzyl (cyclopropyl)carbamoyl)-3-(diphenylcarbamoyl)-3,8-diazabicyclo [3.2.1]octane-2-carboxylic acid], with 2.78 nM; and `O=C(O)[C@@H]1[C@H]2CC[C@@H](CN1C(=O)N(c1ccccc1)c1ccccc1)N2C(=O)Oc1ccccc1` [Compound C115, (1R,2S,5S)-3-(diphenylcarbamoyl)-8-(phenoxycarbonyl)-3,8-diazabicyclo [3.2.1]octane-2-carboxylic acid], with 431 nM. In the case of `CCN(Cc1sccc1C)C(=O)N1[C@H]2CC[C@@H]1[C@@H](C(=O)O)N(C(=O)N(c1ccccc1)c1ccccc1)C2` [Compound C272, (1R,2S,5S)-3-(diphenylcarbamoyl)-8-(ethyl((3-methylthiophen-2-yl)methyl)carbamoyl)-3,8-diazabicyclo [3.2.1]octane-2-carboxylic acid] it was 16.6 nM; in that of `CC(CC(=O)N1[C@H]2CC[C@@H]1[C@@H](C(=O)O)N(C(=O)N(c1ccccc1)c1ccccc1)C2)c1ccccc1` (stereo partly drawn) [Compound C224, (1R,2S,5S)-3-(diphenylcarbamoyl)-8-(3-phenylbutylyl)-3,8-diazabicyclo [3.2.1]octane-2-carboxylic acid], 23.8 nM; in that of `O=C(O)[C@@H]1[C@H]2CC[C@@H](CN1C(=O)N1c3ccccc3C=Cc3ccccc31)N2C(=O)N(c1ccccc1)c1ccccc1` [Compound C7, (1R,2S,5S)-3-(5H-dibenzo[b,f]azepine-5-carbonyl)-8-(diphenylcarbamoyl)-3,8-diazabicyclo[3. 2.1]octane-2-carboxylic acid], 82.7 nM. For the molecule `CCCc1ccc(CN(C)C(=O)N2[C@H]3CC[C@@H]2[C@@H](C(=O)O)N(C(=O)N(c2ccccc2)c2ccccc2)C3)cc1` [Compound C236, (1R,2S,5S)-3-(diphenylcarbamoyl)-8-(methyl(4-propylbenzyl)carbamoyl)-3,8-diazabicyclo[3.2.1]octane-2-carboxylic acid], the IC50 is 6.13 nM. This IC50 is about 13-fold lower than that of the molecule before. In turn, `O=C(O)[C@@H]1[C@H]2CC[C@@H](CN1C(=O)N(c1ccccc1)c1ccccc1)N2C(=O)/C=C/c1ccccc1` [Compound C174, (1R,2S,5S)-8-cinnamoyl-3-(diphenylcarbamoyl)-3,8-diazabicyclo [3.2.1]octane-2-carboxylic acid] came in with an IC50 of 226 nM.

With `CN(Cc1csc2ccccc12)C(=O)N1[C@H]2CC[C@@H]1[C@@H](C(=O)O)N(C(=O)N(c1ccccc1)c1ccccc1)C2` [Compound C246], the IC50 was 10.1 nM. Then `O=C(O)[C@@H]1[C@H]2CC[C@@H](CN1C(=O)N(c1ccccc1)c1ccccc1)N2C(=O)N1CCC[C@@H]1c1ccccc1` [Compound C140, (1R,2S,5S)-3-(diphenylcarbamoyl)-8-((R)-2-phenylpyrrolidine-1-carbonyl)-3,8-diazabicyclo [3.2.1]octane-2-carboxylic acid], with 5.49 nM. In the case of `O=C(O)[C@@H]1[C@H]2CC[C@@H](CN1C(=O)N(c1ccccc1)c1ccccc1)N2C(=O)c1ccccc1-c1ccccc1` [Compound C240, (1R,2S,5S)-8-([1,1′-biphenyl]-2-carbonyl)-3-(diphenylcarbamoyl)-3,8-diazabicyclo [3.2.1]octane-2-carboxylic acid] it was 113 nM; in that of `CN(Cc1ccc(C(F)(F)F)cc1)C(=O)N1[C@H]2CC[C@@H]1[C@@H](C(=O)O)N(C(=O)N(c1ccccc1)c1ccccc1)C2` [Compound C169], 7.26 nM; in that of “(1R,2S,5S)-3- (2,2-diphenylacetyl)- 8-(((2-fluorobenzyl) oxy)carbonyl)- 3,8-diazabicyclo [3.2.1]octane-2- carboxylic acid [Compound C35]”, 36.6 nM. In the case of `CC(c1ccsc1)N(C)C(=O)N1[C@H]2CC[C@@H]1[C@@H](C(=O)O)N(C(=O)N(c1ccccc1)c1ccccc1)C2` (stereo partly drawn) [Compound C229, (1R,2S,5S)-3-(diphenylcarbamoyl)-8-(methyl (1-(thiophene-3-yl)ethyl)carbamoyl)-3,8-diazabicyclo[3.2.1] octane-2-carboxylic acid] it was 10.1 nM; in that of `CN(Cc1ccccc1)C(=O)N1[C@H]2CC[C@@H]1[C@@H](C(=O)O)N(C(=O)C(C)(c1ccccc1)c1ccccc1)C2` [Compound C173, (1R,2S,5S)-8-(benzyl(methyl)carbamoyl)-3-(2,2-diphenylpropionyl)-3,8-diazabicyclo [3.2.1]octane-2-carboxylic acid], 5.57 nM.

Consider `O=C(O)[C@@H]1[C@H]2CC[C@@H](CN1C(=O)N(c1ccccc1)c1ccccc1)N2C(=O)N1CCC[C@@H]1c1cc(F)ccc1F` [Compound C141, (1R,2S,5S)-8-((R)-2-(2,5-difluorophenyl)pyrrolidine-1-carbonyl)-3-(diphenylcarbamoyl)-3,8-diazabicyclo [3.2.1]octane-2-carboxylic acid], for which the IC50 is 7.99 nM. In the case of `O=C(O)[C@@H]1[C@H]2CC[C@@H](CN1C(=O)N(c1ccccc1)c1ccccc1)N2C(=O)C1(c2ccccc2)CCCC1` [Compound C113, (1R,2S,5S)-3-(diphenylcarbamoyl)-8-(1-phenylcyclopentane-1-carbonyl)-3,8-diazabicyclo [3.2.1]octane-2-carboxylic acid] it was 12.1 nM; in that of `Cc1ccc(COC(=O)N2[C@H]3CC[C@@H]2[C@@H](C(=O)O)N(C(=O)C(c2ccccc2)c2ccccc2)C3)cc1` [Compound C194, (1R,2S,5S)-3-(2,2-diphenylacetyl)-8-(((4-methylbenzyl)oxy)carbonyl)-3,8-diazabicyclo [3.2.1]octane-2-carboxylic acid], 129 nM; in that of `O=C(O)[C@@H]1[C@H]2CC[C@@H](CN1C(=O)N(c1ccccc1)c1ccccc1)N2C(=O)N(c1ccccc1)c1ccccc1` [Compound C41, (1R,2S,5S)-3,8-bis (diphenylcarbamoyl)-3,8-diazabicyclo [3.2.1]octane-2-carboxylic acid], 9.77 nM. Then `O=C(O)[C@@H]1[C@H]2CC[C@@H](CN1C(=O)N(c1ccccc1)c1ccccc1)N2C(=O)N(c1ccc(F)cc1)c1ccc(F)cc1` [Compound C145, (1R,2S,5S)-8-(bis(4-fluorophenyl)carbamoyl)-3-(diphenylcarbamoyl)-3,8-diazabicyclo [3.2.1]octane-2-carboxylic acid], with 110 nM; and `CN(Cc1ccc2ccccc2n1)C(=O)N1[C@H]2CC[C@@H]1[C@@H](C(=O)O)N(C(=O)N(c1ccccc1)c1ccccc1)C2` [Compound C265, (1R,2S,5S)-3-(diphenylcarbamoyl)-8-(methyl (quinoline-2-ylmethyl)carbamoyl)-3,8-diazabicyclo [3.2.1]octane-2-carboxylic acid], with 27.2 nM; and `C=C(C)c1ccc(CN(C)C(=O)N2[C@H]3CC[C@@H]2[C@@H](C(=O)O)N(C(=O)N(c2ccccc2)c2ccccc2)C3)cc1` [Compound C215], with 26.5 nM.
